The values below come from patent US9408853B2, “Iridium/rhodium anti-cancer compounds” (University of Warwick, priority 2010, dated 2016).

One data set has as its system MCF-7 cancer cell line. Particulars: cited from earlier work.
In the next data set the test system is HT-29 cancer cell line. Particulars: cited from earlier work.
In data set [1] the test system is A2780 human ovarian cancer cells. Put plainly: Cytotoxicity testing of rhodium complexes. The format is cell-based. As for the experimental part:
Cytotoxicity testing in A2780 human ovarian cancer cells was performed by Dr Ana Maria Pizarro Arranz at the University of Warwick.

In the next data set the test system is 9-ethylguanine (9-EtG). Briefly: Interactions with nucleobases: 9-EtG adduct formation (1H NMR). The conditions noted are these: 310 K; for guanine adducts formed: 24 h, ca. 1.0 mM, 1 mol equiv 9-EtG, 20% MeOD-d4/80% D2O; for Reaction with 9-EtG, extent of adduct formation: 10 min, 1 mM, 1 mol equiv 9-EtG (ZL33A: 2 mol equiv), D2O. It is filed as binding. As for the experimental part:
(§1) Interactions with Nucleobases. The reaction of ZL01, ZL03, ZL04, ZL07, ZL25, ZL33, ZL37, ZL38, ZL43 and ZL54 and ZL33A with nucleobases typically involved addition of a solution containing 1-2 mol equiv of nucleobase in D2O, to an equilibrium solution of ZL01, ZL03, ZL04, ZL07, ZL25, ZL33, ZL37, ZL38, ZL43, ZL54 and ZL33A in a solution of 5% MeOD-d4/95% D2O (v/v). ^1H NMR spectra of these solutions were recorded at 310 K after various time intervals.
(§2) Since DNA is a potential target site for transition metal anticancer complexes,^18 nucleobase binding reactions of compounds ZL01, ZL03, ZL04, ZL07, ZL25, ZL33, ZL33A, ZL37, ZL38, ZL43 and ZL54 with nucleobase models 9-ethylguanine (9-EtG) and 9-ethyladenine (9-EtA), were investigated. Solutions of ZL01, ZL03, ZL04, ZL07, ZL25, ZL33, ZL37, ZL38, ZL43 and ZL54 (1 mM) (containing an equilibrium mixture of these complexes and their respective aqua adducts) with 1 mol equivalent of 9-EtG or 9-EtA in D2O were prepared, and ^1H NMR spectra were recorded at different time intervals.
Interactions with Nucleobases. Since DNA is a potential target site for transition metal anticancer complexes,^23 the binding of 9-ethylguanine (9-EtG) to complexes ZL47, ZL49, ZL69, ZL74 and ZL107 was studied.

Data set [2] concerns human ovarian A2780 cancer cells. Put plainly: Cancer cell cytotoxicity, SRB assay. The format is cell-based. Particulars: 24 h exposure, 72 h recovery, SRB; read-out: A2780 IC50. On the procedure: Cancer Cell Cytotoxicity. After plating, human ovarian A2780 cancer cells were treated with Ir^III complexes on day 3 at concentrations ranging from 0.5 μM to 100 μM. Solutions of the Ir^III complexes were made up in 0.125% DMSO to assist dissolution. Stock solutions of the IrIII complexes were firstly prepared in DMSO to assist dissolution, and then diluted into 0.9% saline and medium. After plating 5000 A2780 cells per well on day 1, IrIII complexes were added to the cancer cells on day 3 at concentrations ranging from 0.05 μM to 100 μM. Cells were exposed to the complexes for 24 h, washed, supplied with fresh medium, allowed to grow for three doubling times (72 h), and then the protein content measured (proportional to cell survival) using the sulforhodamine B (SRB) assay.^15 […]. The standard errors are based on two independent experiments of three replicates each.

Data set [3] in a line: Hydrolysis studies of C,N-chelated complexes and anation by NaCl (1H NMR). The format is physicochemical. Particulars: 20% MeOD-d4/80% D2O; equilibrium reached within ~5 min even at 278 K. From the text: Hydrolysis Studies. The hydrolysis of complexes [(η^5-C5Me5)Ir(2-phpy)Cl] (ZL47), [(η^5-C5Me4C6H4C6H5)Ir(2-phpy)Cl] (ZL49), [(η^5-C5Me5) Ir(2-phq)Cl] (ZL68), [(η^5-C5Me5) Ir(tpy)Cl] (ZL69), [(η^5-C5Me5)Ir(2-dfphpy)Cl] (ZL74) and [(η^5-C5Me4C6H5)Ir(2-phpy) Cl] (ZL107) in 20% MeOD-d4/80% D2O (v/v) was monitored by ^1H NMR at different temperatures. The presence of methanol ensured the solubility of the complexes.

For another data set, the system named is CH1 cancer cell line. Briefly: Cytotoxicity, MTT assay (Brabec group). The conditions noted are these: for IC50: 72 h incubation, MTT. It is filed as cell-based. On the procedure:
(§3) The cytotoxicity test of ZL07, ZL33, ZL38 and ZL54 against A2780, SW480, A549 and CH1 cell lines was performed by Viktor Brabec group (Institute of Biophysics, Academy of Sciences of the Czech Republic). After plating, the cells were treated with ZL07, ZL33, ZL38 and ZL54. After 72h of incubation 10 μl of MTT (2.5 mg/ml; CALBIOCHEM) was added to each well and incubated for 4 h in culture conditions. At the end of the incubation period the medium was removed and the formazan product was dissolved in 100 μl DMSO. The cell viability was evaluated by measurement of the absorbance at 570 nm, using an Absorbance Reader SUNRICE TECAN SCHOELLER. […] All experiments were made in quadruplicate.

The test system of the next data set is SW480 cancer cell line. Briefly: Cytotoxicity, MTT assay (Brabec group). It is filed as cell-based. The conditions noted are these: for IC50: 72 h incubation, MTT. On the procedure: as §3
A further data set deals with A549 cancer cell line. Briefly: Cytotoxicity, MTT assay (Brabec group). The conditions noted are these: for IC50: 72 h incubation, MTT. It is filed as cell-based. As for the experimental part:
as §3

Another data set deals with 9-ethyladenine (9-EtA). Put plainly: Interactions with nucleobases: 9-EtA adduct formation (1H NMR). The conditions noted are these: 1 mM, 1 mol equiv 9-EtA, D2O, 310 K. It is filed as binding. On the procedure: as §1, §2
Data set [4] in a line: Kinetics of hydrolysis followed by 1H NMR. The conditions noted are these: for k (hydrolysis): 0.2 mM, 5% MeOD-d4/95% D2O, pH* 3. It is filed as physicochemical. As for the experimental part:
Kinetics for Hydrolysis. Although complexes ZL01-ZL04, ZL07, ZL38 and ZL43 hydrolyzed too rapidly to monitor by ^1H NMR, The kinetics of hydrolysis for complexes ZL25, ZL33, ZL37 and ZL54 were followed by ^1H NMR at different temperatures. For this, solutions of the complexes with a final concentration of 0.2 mM in 5% MeOD-d4/95% D2O (v/v) were prepared by dissolution of the complexes in MeOD-d4 followed by rapid dilution using D2O with a pH* of about 3 (acidified with HClO4), so that the aqua ligand was not deprotonated. ^1H NMR spectra were taken after various time intervals. The rates of hydrolysis were determined by fitting plots of concentrations (determined from ^1H NMR peak integrals) versus time to a pseudo first-order equation using ORIGIN version 7.0. The Arrhenius activation energy (Ea), activation enthalpies (ΔH^¢), and activation entropy (ΔS^‡) for compounds ZL25, ZL33, ZL37 and ZL54 were determined from the slopes of the Arrhenius and intercepts of Eyring plots.
The rates of hydrolysis of compounds ZL01-ZL04, ZL07, ZL25, ZL33, ZL37, ZL38, ZL43 and ZL54 in a 5% MeOD-d4/95% D2O were monitored by ^1H NMR at different temperature from 278 to 298 K by the observation of new peaks over time due to aqua adduct formation. Five percent MeOD was used to improve solubility, and acidic conditions (D2O, pH* 3) were used to prevent the deprotonation of the aqua complex as a secondary reaction. […] The percentage of aqua peak formation for ZL25, ZL33, ZL37 and ZL54 was plotted against time and was fitted to pseudofirst order kinetics (FIG. 3), and their halflife times were calculated (Table 1). The Arrhenius activation energy (Ea), activation enthalpy (ΔH^¢), and activation entropy (ΔS^‡) of compound ZL25, ZL33, ZL37 and ZL54 are listed in Table 4. The large negative ΔS^‡value for compound ZL54 is notable. The extent of hydrolysis at equilibrium is medium for all compounds, ranged from 30% to 60%.

Setting [5] is: highest test concentration 130 μM.

With `Cc1c(C)c(C)[c-](C)c1C.NCCN.O=S(=O)([O-])C(F)(F)F.[Cl-].[Ir+3]` [[(η^5-C5Me5) Ir(en)Cl](CF3SO3)], the “in vitro cytotoxic activity towards MCF-7 (in words)” value with MCF-7 cancer cell line is “inactive”.
In the case of `Cc1c(C)c(C)[c-](C)c1C.O=S(=O)([O-])C(F)(F)F.[Cl-].[Ir+3].c1cnc2c(c1)ccc1cccnc12` [[(η^5-C5Me5)Ir(phen)Cl](CF3SO3)], the “in vitro cytotoxic activity towards MCF-7 (in words)” value with MCF-7 cancer cell line is “inactive”.
`CN(C)C(=S)N(C)C.Cc1c(C)c(C)[c-](C)c1C.O=S(=O)([O-])C(F)(F)F.O=S(=O)([O-])C(F)(F)F.[Ir+3].c1ccc2cc3nc4c5cccnc5c5ncccc5c4nc3cc2c1` [[(η^5-C5Me5)Ir((NMe2)2CS)(dppn)](CF3SO3)2]: the “in vitro cytotoxic activity towards MCF-7 (in words)” value with MCF-7 cancer cell line is “possess in vitro cytotoxic activity”. In the data set with HT-29 cancer cell line, the “in vitro cytotoxic activity towards HT-29 (in words)” value is on record as “possess in vitro cytotoxic activity”.
For the molecule “[(Cp^xdiPh)Rh(2-phenylbipyridyl)Cl]Cl [JS39]”, the “relative activity against A2780 (in words)” value in data set [1] is “most active”.
For the molecule `Cc1c(C)c(C)[c-](C)c1C.Cc1c[c-]c(-c2ccccn2)cc1.[Cl-].[Ir+3]` [ZL69, [(η^5-C5Me5)Ir(tpy)Cl]], in the data set with 9-ethylguanine (9-EtG), the guanine adducts formed is recorded as 100%. Further, the IC50 in data set [2] is 3280 ± 140 nM. The “hydrolysis (in words)” value in [3] is “rapid hydrolysis”.
On to “[(Cp^xPh)Rh(2-Phenylbipyridyl)Cl]Cl [JS29]”, for which the “relative activity against A2780 (in words)” value in [1] is reported as “most active”.
Same read-out and setting: to [(Cp*)Rh(2-phenylbipyridyl)Cl]Cl [JS36] belongs “most active”.
With `Cc1c(C)c(C)[c-](C)c1C.[Cl-].[Ir+3].[c-]1ccccc1-c1ccc2ccccc2n1` [ZL68, [(η^5-C5Me5)Ir(2-phq)Cl]], in data set [2], the IC50 stood at 2550 ± 30 nM. In addition, in data set [3], the “hydrolysis (in words)” value was “rapid hydrolysis”.
On to `Cc1c(C)c(C)[c-](C)c1C.Fc1c[c-]c(-c2ccccn2)c(F)c1.[Cl-].[Ir+3]` [ZL74, [(η^5-C5Me5)Ir(2-dfphpy)Cl]], for which, in the data set with 9-ethylguanine (9-EtG), the guanine adducts formed is listed as 100%. Moreover, the IC50 in data set [2] is 6530 ± 500 nM. Moreover, in [3], the “hydrolysis (in words)” value is “rapid hydrolysis”.
On the same counts, the results for `Cc1c(C)c(-c2ccccc2)[c-](C)c1C.[Cl-].[Ir+3].[c-]1ccccc1-c1ccccn1` (stereo not shown) [ZL107, [(η^5-C5Me4C6H5)(2-phpy)Cl]] are 100%, 2140 ± 500 nM and “rapid hydrolysis”.
Turning to `Cc1c(C)c(-c2ccc(-c3ccccc3)cc2)[c-](C)c1C.F[P-](F)(F)(F)(F)F.[Cl-].[Ir+3].c1cnc2c(c1)ccc1cccnc12` (stereo not shown) [ZL54, [(η^5-C5Me4C6H4C6H5)Ir(phen)Cl]PF6], the IC50 in the data set with CH1 cancer cell line turned out to be 690 ± 40 nM; in the data set on SW480 cancer cell line, 1380 ± 200 nM; with A549 cancer cell line it was 1580 ± 400 nM; in data set [2], 720 nM. Besides, the entries for the “times more active than cisplatin” value in the data set on SW480 cancer cell line (SW480) and in the data set on A549 cancer cell line (A549) were “about 6.7 times” and around 3.7 times, respectively. Also, the “Reaction with 9-EtG, extent of adduct formation” value with 9-ethylguanine (9-EtG) was found to be 62.2%. The “Reaction with 9-EtA, extent of adduct formation” value in the data set with 9-ethyladenine (9-EtA) (10 min) and with 9-ethyladenine (9-EtA) (24 h) was 0% each time. The “k (hydrolysis)” value was determined as 0.0179 min⁻¹ in [4] (278 K), 0.0352 min⁻¹ in data set [4] (288 K) and 0.0516 min⁻¹ in data set [4] (293 K). Moreover, the “Ea (Arrhenius activation energy of hydrolysis)” value in data set [4] (from Arrhenius plot) worked out at 10.9 kcal/mol. Also, in data set [4] (from Eyring plot), the “ΔH^‡ (activation enthalpy of hydrolysis)” value amounted to 10.4 kcal/mol. Also, the “ΔS^‡ (activation entropy of hydrolysis)” value in data set [4] (from Eyring plot) is recorded as −121.2 J K^−1mol^−1.
On to `Cc1c(C)c(C)[c-](C)c1C.[Cl-].[Cl-].[Ir+3].c1cnc2c(c1)ccc1cccnc12` [ZL07, [(η^5-C5Me5)Ir(phen)Cl]Cl], for which the IC50 in the data set on CH1 cancer cell line was 50700 ± 2800 nM; in the data set on SW480 cancer cell line, 80100 ± 1500 nM; with A549 cancer cell line, above 130000 nM; in data set [2], above 100000 nM. Further, the “cytotoxicity towards CH1 (in words)” value with CH1 cancer cell line (setting [5]) was “moderate activity”. For the same molecule, in the data set on SW480 cancer cell line (setting [5]), the “cytotoxicity towards SW480 (in words)” value is reported as “moderate activity”. In addition, the “Reaction with 9-EtG, extent of adduct formation” value in the data set on 9-ethylguanine (9-EtG) came out at 73.1%. Also, the “Reaction with 9-EtA, extent of adduct formation” value in the data set with 9-ethyladenine (9-EtA) (10 min) and with 9-ethyladenine (9-EtA) (24 h) was 0% throughout. Further, the “rate of hydrolysis (in words)” value in [4] (1H NMR, even at 278K) is given as “too rapid to be observed”.
